Measured values published in ChEMBL document CHEMBL1201862, “PubChem BioAssay data set” (2004).
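Five compound concentrations were applied to cells in 96-well plates for 48 hours; endpoints were derived by simple linear interpolation of the resulting dose-response curve. GI50 is the concentration that inhibits growth by half.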 Calls of active or inactive are those of the source. Rule as the data show it: active = GI50 up to about 1.1 µM and inactive = higher.

Columns and labels:
Experiment in all cases: growth of human tumour cells (NCI), 48 h
T47D = system: T47D
UACC-257 = system: UACC-257
NCI/ADR-RES = system: NCI/ADR-RES
U-251 = system: U-251
SK-OV-3 = system: SK-OV-3
Malme-3M = system: Malme-3M
K562 = system: K562
SN12C = system: SN12C
NCI-H460 = system: NCI-H460
TK-10 = system: TK-10
NCI-H522 = system: NCI-H522
A549 = system: A549
COLO 205 = system: COLO 205
NCI-H226 = system: NCI-H226
HCT-15 = system: HCT-15
SNB-19 = system: SNB-19
CAKI-1 = system: CAKI-1
IGROV-1 = system: IGROV-1
MOLT-4 = system: MOLT-4
BT-549 = system: BT-549
SF-539 = system: SF-539
MDA-MB-435 = system: MDA-MB-435
CCRF-CEM = system: CCRF-CEM
HOP-62 = system: HOP-62
MCF7 = system: MCF7
OVCAR-3 = system: OVCAR-3
HCT-116 = system: HCT-116
RXF 393 = system: RXF 393
PC-3 = system: PC-3
MDA-MB-231 = system: MDA-MB-231
UACC-62 = system: UACC-62
KM12 = system: KM12
ACHN = system: ACHN
SF-295 = system: SF-295
OVCAR-8 = system: OVCAR-8
LOX IMVI = system: LOX IMVI
SNB-75 = system: SNB-75
SF-268 = system: SF-268
HCC 2998 = system: HCC 2998
SK-MEL-2 = system: SK-MEL-2
OVCAR-4 = system: OVCAR-4
HT-29 = system: HT-29
NCI-H23 = system: NCI-H23
MDA-N = system: MDA-N
RPMI-8226 = system: RPMI-8226
Hs-578T = system: Hs-578T
SK-MEL-28 = system: SK-MEL-28
DU-145 = system: DU-145
M14 = system: M14
SW-620 = system: SW-620
SK-MEL-5 = system: SK-MEL-5
786-0 = system: 786-0
HL-60 = system: HL-60
EKVX = system: EKVX
OVCAR-5 = system: OVCAR-5
UO-31 = system: UO-31
SR = system: SR
HOP-92 = system: HOP-92

Measured: GI50

O=[N+]([O-])c1ccc(N2N=C(c3ccc4ccccc4c3O)CC2c2ccc(Cl)cc2Cl)c([N+](=O)[O-])c1 (stereo not given)
27.2 µM: HCT-15
inactive: T47D 27.7 µM | UACC-257 48.9 µM | NCI/ADR-RES 28.6 µM | U-251 28 µM | SK-OV-3 47.8 µM | Malme-3M 32.2 µM | K562 15.4 µM | SN12C 71 µM | NCI-H460 51.1 µM | TK-10 63 µM | NCI-H522 28 µM | A549 28.5 µM | COLO 205 44.7 µM | NCI-H226 49.1 µM | SNB-19 29.3 µM | CAKI-1 54.6 µM | IGROV-1 23.3 µM | MOLT-4 14.9 µM | BT-549 49.1 µM | SF-539 25.6 µM | MDA-MB-435 29.5 µM | CCRF-CEM 12.9 µM | HOP-62 38.1 µM | MCF7 40.9 µM | OVCAR-3 33.7 µM | HCT-116 23.6 µM | RXF 393 25.4 µM | PC-3 35.1 µM | MDA-MB-231 30.9 µM | UACC-62 26.7 µM | KM12 29 µM | ACHN 25.2 µM | SF-295 24.3 µM | OVCAR-8 33.3 µM | LOX IMVI 41.5 µM | SNB-75 92.7 µM | SF-268 53.1 µM | HCC 2998 30.3 µM | SK-MEL-2 30.3 µM | OVCAR-4 41.7 µM | HT-29 40.1 µM | NCI-H23 24.7 µM | MDA-N 40.9 µM | RPMI-8226 18.8 µM | Hs-578T 27.9 µM | SK-MEL-28 65.8 µM | DU-145 55.5 µM | M14 > 10 µM | SW-620 37.5 µM | SK-MEL-5 29.1 µM | 786-0 28.2 µM | HL-60 7.59 µM | EKVX 37.3 µM | OVCAR-5 37.2 µM | UO-31 18.7 µM

CCOP(=O)(OCC)C(Cc1ccccc1)N=C(c1ccccc1)c1ccccc1 (stereo not given)
inactive: T47D 6.97 µM | UACC-257 13.7 µM | NCI/ADR-RES 10.1 µM | U-251 13.3 µM | SK-OV-3 15.2 µM | Malme-3M 20.6 µM | K562 7.29 µM | SN12C 16.7 µM | NCI-H460 14.8 µM | TK-10 11.5 µM | NCI-H522 12.4 µM | SR 17.9 µM | A549 9.29 µM | COLO 205 14.3 µM | NCI-H226 14.2 µM | SNB-19 14.6 µM | CAKI-1 16.2 µM | IGROV-1 13.9 µM | MOLT-4 4.93 µM | BT-549 13.2 µM | MDA-MB-435 13.2 µM | CCRF-CEM 9.95 µM | HOP-62 17.6 µM | MCF7 13.9 µM | OVCAR-3 14.5 µM | HOP-92 13.6 µM | HCT-116 14.6 µM | PC-3 3.96 µM | UACC-62 13.3 µM | KM12 15.5 µM | ACHN 14.9 µM | SF-295 12.3 µM | OVCAR-8 16.3 µM | LOX IMVI 11.6 µM | SNB-75 11.5 µM | SF-268 17.8 µM | SK-MEL-2 18.2 µM | OVCAR-4 16.2 µM | HT-29 13.1 µM | NCI-H23 12.7 µM | MDA-N 14.6 µM | RPMI-8226 25.4 µM | Hs-578T 11.2 µM | SK-MEL-28 17 µM | DU-145 20.9 µM | M14 15.3 µM | SW-620 12.4 µM | SK-MEL-5 12.9 µM | 786-0 15.2 µM | HL-60 16.3 µM | EKVX 18 µM | OVCAR-5 14.4 µM | UO-31 11.5 µM
12.1 µM: HCT-15
